Columns and labels:
Experiment in all cases: KINOMEscan
Type in all cases: binding
[1] = target: T1, ABL1(H396P)-nonphosphorylated (Homo sapiens, UniProt P00519, H396P); conditions: 1 uM
T1 construct: purchased Ambit KINOMEscan (DiscoverX)
Procedure, shortened: (§1)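 Compounds were each tested at a single concentration of 1 μM in a binding-based kinase panel.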

[2] = target: T2, ACVR1B (Homo sapiens, UniProt P36896); conditions: 1 uM
T2 construct: purchased Ambit KINOMEscan (DiscoverX)
Procedure, shortened: as §1

[3] = target: T3, ADCK4 (Homo sapiens, UniProt Q96D53); conditions: ADCK4, 1 uM
T3 construct: purchased Ambit KINOMEscan (DiscoverX)
Procedure, shortened: as §1

[4] = target: T4, AKT1 (Homo sapiens, UniProt P31749); conditions: AKT1, 1 uM
T4 construct: purchased Ambit KINOMEscan (DiscoverX)
Procedure, shortened: as §1

[5] = target: T5, ANKK1 (Homo sapiens, UniProt Q8NFD2); conditions: ANKK1, 1 uM
T5 construct: purchased Ambit KINOMEscan (DiscoverX)
Procedure, shortened: as §1

[6] = target: T6, BMX (Homo sapiens, UniProt P51813); conditions: 1 uM
T6 construct: purchased Ambit KINOMEscan (DiscoverX)
Procedure, shortened: as §1

[7] = target: T7, CDK2 (Homo sapiens, UniProt P24941); conditions: CDK2, 1 uM
T7 construct: purchased Ambit KINOMEscan (DiscoverX)
Procedure, shortened: as §1

[8] = target: T8, CSNK1G2 (Homo sapiens, UniProt P78368); conditions: CSNK1G2, 1 uM
T8 construct: purchased Ambit KINOMEscan (DiscoverX)
Procedure, shortened: as §1

[9] = target: T9, CSNK2A1 (Homo sapiens, UniProt P68400); conditions: CSNK2A1, 1 uM
T9 construct: purchased Ambit KINOMEscan (DiscoverX)
Procedure, shortened: as §1

[10] = target: T10, DAPK3 (Homo sapiens, UniProt O43293); conditions: DAPK3, 1 uM
T10 construct: purchased Ambit KINOMEscan (DiscoverX)
Procedure, shortened: as §1

[11] = target: T11, EPHA5 (Homo sapiens, UniProt P54756); conditions: EPHA5, 1 uM
T11 construct: purchased Ambit KINOMEscan (DiscoverX)
Procedure, shortened: as §1

[12] = target: T12, EPHB3 (Homo sapiens, UniProt P54753); conditions: EPHB3, 1 uM
T12 construct: purchased Ambit KINOMEscan (DiscoverX)
Procedure, shortened: as §1

[13] = target: T13, FGR (Homo sapiens, UniProt P09769); conditions: 1 uM
T13 construct: purchased Ambit KINOMEscan (DiscoverX)
Procedure, shortened: as §1

[14] = target: T14, GRK1 (Homo sapiens, UniProt Q15835); conditions: GRK1, 1 uM
T14 construct: purchased Ambit KINOMEscan (DiscoverX)
T14 sequence (Q15835 whole entry): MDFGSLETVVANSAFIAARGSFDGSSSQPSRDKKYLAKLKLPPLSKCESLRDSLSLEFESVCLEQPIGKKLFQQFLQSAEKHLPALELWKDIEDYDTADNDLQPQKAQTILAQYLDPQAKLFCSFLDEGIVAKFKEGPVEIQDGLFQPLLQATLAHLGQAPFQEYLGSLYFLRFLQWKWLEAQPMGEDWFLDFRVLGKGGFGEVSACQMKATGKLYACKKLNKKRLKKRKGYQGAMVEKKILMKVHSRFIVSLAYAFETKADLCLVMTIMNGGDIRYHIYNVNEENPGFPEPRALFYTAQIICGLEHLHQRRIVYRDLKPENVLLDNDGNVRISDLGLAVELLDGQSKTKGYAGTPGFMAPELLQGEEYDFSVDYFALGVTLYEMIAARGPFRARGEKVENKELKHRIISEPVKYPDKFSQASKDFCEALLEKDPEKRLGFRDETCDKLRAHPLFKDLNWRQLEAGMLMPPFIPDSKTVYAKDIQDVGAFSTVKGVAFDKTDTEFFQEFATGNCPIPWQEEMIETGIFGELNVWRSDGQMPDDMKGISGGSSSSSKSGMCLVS
Procedure, shortened: as §1

[15] = target: T15, HPK1 (Homo sapiens, UniProt Q92918); conditions: HPK1, 1 uM
T15 construct: purchased Ambit KINOMEscan (DiscoverX)
T15 sequence (Q92918 whole entry): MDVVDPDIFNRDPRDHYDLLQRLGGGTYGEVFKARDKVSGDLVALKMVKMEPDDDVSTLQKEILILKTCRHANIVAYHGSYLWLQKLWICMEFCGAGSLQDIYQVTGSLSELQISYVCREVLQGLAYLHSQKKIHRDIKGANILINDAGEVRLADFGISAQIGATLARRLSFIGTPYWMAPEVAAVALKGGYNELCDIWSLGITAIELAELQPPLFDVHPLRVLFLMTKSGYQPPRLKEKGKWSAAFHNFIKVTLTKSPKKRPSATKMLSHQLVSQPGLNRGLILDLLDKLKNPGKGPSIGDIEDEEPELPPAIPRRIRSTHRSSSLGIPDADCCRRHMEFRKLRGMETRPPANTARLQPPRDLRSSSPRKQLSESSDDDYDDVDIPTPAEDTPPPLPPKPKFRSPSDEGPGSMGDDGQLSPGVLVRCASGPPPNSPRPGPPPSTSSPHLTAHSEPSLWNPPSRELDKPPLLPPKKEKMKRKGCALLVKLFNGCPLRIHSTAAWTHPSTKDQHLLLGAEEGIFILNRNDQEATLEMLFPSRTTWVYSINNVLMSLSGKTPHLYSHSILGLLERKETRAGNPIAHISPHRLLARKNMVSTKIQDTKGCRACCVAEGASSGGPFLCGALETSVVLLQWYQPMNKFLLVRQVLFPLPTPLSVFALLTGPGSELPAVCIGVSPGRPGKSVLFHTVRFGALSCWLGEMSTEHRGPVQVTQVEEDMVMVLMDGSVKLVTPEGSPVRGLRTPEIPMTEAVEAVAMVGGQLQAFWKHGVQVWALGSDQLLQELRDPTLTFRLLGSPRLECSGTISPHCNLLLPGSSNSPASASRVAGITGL
Procedure, shortened: as §1

[16] = target: T16, IKK-alpha (Homo sapiens, UniProt O15111); conditions: 1 uM
T16 construct: purchased Ambit KINOMEscan (DiscoverX)
Procedure, shortened: as §1

[17] = target: T17, MAP4K3 (Homo sapiens, UniProt Q8IVH8); conditions: MAP4K3, 1 uM
T17 construct: purchased Ambit KINOMEscan (DiscoverX)
Procedure, shortened: as §1

[18] = target: T18, MKNK2 (Homo sapiens, UniProt Q9HBH9); conditions: MKNK2, 1 uM
T18 construct: purchased Ambit KINOMEscan (DiscoverX)
Procedure, shortened: as §1

[19] = target: T19, MYO3A (Homo sapiens, UniProt Q8NEV4); conditions: 1 uM
T19 construct: purchased Ambit KINOMEscan (DiscoverX)
T19 sequence (Q8NEV4 whole entry): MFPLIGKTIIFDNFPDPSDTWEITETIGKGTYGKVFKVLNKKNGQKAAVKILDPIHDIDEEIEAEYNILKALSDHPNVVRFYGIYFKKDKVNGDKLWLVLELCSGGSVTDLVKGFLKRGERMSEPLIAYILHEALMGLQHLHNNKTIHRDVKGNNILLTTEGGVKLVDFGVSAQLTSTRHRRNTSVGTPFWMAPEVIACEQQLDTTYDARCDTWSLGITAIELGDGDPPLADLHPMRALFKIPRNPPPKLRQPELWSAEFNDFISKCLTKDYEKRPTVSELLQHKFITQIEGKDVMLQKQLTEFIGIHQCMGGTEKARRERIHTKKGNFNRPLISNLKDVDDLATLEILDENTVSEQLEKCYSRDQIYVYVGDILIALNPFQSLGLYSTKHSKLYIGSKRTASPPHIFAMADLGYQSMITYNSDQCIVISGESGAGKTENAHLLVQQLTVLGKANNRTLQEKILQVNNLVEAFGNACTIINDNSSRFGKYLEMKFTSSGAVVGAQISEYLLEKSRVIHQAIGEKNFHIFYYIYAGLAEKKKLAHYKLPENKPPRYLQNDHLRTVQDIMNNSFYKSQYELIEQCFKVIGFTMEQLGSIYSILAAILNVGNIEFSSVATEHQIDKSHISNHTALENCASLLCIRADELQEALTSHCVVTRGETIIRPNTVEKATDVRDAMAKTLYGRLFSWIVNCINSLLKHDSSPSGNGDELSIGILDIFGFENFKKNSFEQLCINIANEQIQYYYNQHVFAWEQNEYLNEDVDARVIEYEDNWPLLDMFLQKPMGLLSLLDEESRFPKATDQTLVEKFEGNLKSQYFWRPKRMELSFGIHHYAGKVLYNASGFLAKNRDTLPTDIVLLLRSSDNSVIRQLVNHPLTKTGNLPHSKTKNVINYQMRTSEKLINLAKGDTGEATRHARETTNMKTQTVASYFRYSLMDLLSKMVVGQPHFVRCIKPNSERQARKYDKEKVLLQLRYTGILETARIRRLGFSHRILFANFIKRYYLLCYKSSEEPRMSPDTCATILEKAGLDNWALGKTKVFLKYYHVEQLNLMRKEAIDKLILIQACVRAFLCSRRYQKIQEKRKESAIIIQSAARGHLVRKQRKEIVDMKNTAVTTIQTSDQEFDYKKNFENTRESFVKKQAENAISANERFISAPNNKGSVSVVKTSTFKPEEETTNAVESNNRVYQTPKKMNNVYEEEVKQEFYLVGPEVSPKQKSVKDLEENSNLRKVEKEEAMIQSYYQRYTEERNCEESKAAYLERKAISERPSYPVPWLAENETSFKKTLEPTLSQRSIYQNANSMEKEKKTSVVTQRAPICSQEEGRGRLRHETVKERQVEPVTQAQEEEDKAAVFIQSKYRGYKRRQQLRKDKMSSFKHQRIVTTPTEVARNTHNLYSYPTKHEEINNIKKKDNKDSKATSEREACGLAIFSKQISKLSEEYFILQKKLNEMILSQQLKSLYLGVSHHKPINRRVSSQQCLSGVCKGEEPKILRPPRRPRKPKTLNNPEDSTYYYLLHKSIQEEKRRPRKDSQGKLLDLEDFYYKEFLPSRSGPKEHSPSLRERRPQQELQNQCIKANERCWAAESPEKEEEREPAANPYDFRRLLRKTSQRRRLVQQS
Procedure, shortened: as §1

[20] = target: T20, NEK2 (Homo sapiens, UniProt P51955); conditions: NEK2, 1 uM
T20 construct: purchased Ambit KINOMEscan (DiscoverX)
Procedure, shortened: as §1

[21] = target: T21, NEK7 (Homo sapiens, UniProt Q8TDX7); conditions: NEK7, 1 uM
T21 construct: purchased Ambit KINOMEscan (DiscoverX)
T21 sequence (Q8TDX7 whole entry): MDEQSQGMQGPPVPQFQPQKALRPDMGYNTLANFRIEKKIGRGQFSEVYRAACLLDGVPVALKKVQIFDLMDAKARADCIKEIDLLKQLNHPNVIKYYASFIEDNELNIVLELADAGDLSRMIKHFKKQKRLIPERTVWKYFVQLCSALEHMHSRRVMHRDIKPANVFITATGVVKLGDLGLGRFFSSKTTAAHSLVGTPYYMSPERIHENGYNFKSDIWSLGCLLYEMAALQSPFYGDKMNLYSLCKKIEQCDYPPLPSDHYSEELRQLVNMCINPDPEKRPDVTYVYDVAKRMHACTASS
Procedure, shortened: as §1

[22] = target: T22, PAK2 (Homo sapiens, UniProt Q13177); conditions: PAK2, 1 uM
T22 construct: purchased Ambit KINOMEscan (DiscoverX)
T22 sequence (Q13177 whole entry): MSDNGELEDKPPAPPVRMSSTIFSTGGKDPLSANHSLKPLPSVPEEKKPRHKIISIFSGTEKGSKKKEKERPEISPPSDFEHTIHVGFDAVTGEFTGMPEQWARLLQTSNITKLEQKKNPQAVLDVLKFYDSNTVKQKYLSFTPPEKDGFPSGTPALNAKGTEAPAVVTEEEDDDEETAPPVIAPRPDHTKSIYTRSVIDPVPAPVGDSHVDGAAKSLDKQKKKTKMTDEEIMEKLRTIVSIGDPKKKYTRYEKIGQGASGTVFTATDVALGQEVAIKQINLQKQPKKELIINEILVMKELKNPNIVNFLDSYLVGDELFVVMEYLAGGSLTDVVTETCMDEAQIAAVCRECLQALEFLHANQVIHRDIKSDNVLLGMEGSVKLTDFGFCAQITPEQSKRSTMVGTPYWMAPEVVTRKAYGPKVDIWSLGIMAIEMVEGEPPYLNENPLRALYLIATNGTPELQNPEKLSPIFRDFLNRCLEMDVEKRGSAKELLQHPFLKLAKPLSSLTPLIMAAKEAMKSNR
Procedure, shortened: as §1

[23] = target: T23, PKAC-beta (Homo sapiens, UniProt P22694); conditions: 1 uM
T23 construct: purchased Ambit KINOMEscan (DiscoverX)
Procedure, shortened: as §1

[24] = target: T24, PKMYT1 (Homo sapiens, UniProt Q99640); conditions: PKMYT1, 1 uM
T24 construct: purchased Ambit KINOMEscan (DiscoverX)
Procedure, shortened: as §1

[25] = target: T25, PRKCD (Homo sapiens, UniProt Q05655); conditions: 1 uM
T25 construct: purchased Ambit KINOMEscan (DiscoverX)
Procedure, shortened: as §1

[26] = target: T26, RIPK1 (Homo sapiens, UniProt Q13546); conditions: RIPK1, 1 uM
T26 construct: purchased Ambit KINOMEscan (DiscoverX)
Procedure, shortened: as §1

[27] = target: T27, RPS6KA1(Kin.Dom.1-N-terminal) (Homo sapiens, UniProt Q15418); conditions: 1 uM
T27 construct: RPS6KA1(Kin.Dom.1-N-terminal); purchased Ambit KINOMEscan (DiscoverX)
Procedure, shortened: as §1

[28] = target: T28, RPS6KA5(Kin.Dom.1-N-terminal) (Homo sapiens, UniProt O75582); conditions: 1 uM
T28 construct: RPS6KA5(Kin.Dom.1-N-terminal); purchased Ambit KINOMEscan (DiscoverX)
Procedure, shortened: as §1

[29] = target: T29, SIK (Homo sapiens, UniProt P57059); conditions: 1 uM
T29 construct: purchased Ambit KINOMEscan (DiscoverX)
Procedure, shortened: as §1

[30] = target: T30, TBK1 (Homo sapiens, UniProt Q9UHD2); conditions: TBK1, 1 uM
T30 construct: purchased Ambit KINOMEscan (DiscoverX)
T30 sequence (Q9UHD2 whole entry): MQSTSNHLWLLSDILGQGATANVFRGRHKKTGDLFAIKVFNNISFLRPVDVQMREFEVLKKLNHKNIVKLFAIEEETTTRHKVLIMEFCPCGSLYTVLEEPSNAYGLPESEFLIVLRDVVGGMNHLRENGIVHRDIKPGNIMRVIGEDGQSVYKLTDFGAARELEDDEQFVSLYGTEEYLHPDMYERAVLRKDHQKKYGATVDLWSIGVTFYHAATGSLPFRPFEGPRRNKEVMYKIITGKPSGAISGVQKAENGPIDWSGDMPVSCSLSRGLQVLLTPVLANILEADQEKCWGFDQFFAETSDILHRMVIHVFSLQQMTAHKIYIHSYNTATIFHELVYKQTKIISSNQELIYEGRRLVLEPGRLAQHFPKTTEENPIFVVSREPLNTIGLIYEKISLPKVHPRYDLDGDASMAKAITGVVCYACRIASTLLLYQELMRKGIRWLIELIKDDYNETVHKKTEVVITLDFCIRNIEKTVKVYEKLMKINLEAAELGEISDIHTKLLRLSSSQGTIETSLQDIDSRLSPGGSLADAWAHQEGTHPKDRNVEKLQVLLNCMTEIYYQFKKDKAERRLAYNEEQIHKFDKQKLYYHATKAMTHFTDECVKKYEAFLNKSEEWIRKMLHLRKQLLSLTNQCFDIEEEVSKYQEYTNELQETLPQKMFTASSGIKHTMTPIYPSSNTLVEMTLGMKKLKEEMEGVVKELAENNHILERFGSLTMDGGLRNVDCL
Procedure, shortened: as §1

[31] = target: T31, ULK2 (Homo sapiens, UniProt Q8IYT8); conditions: ULK2, 1 uM
T31 construct: purchased Ambit KINOMEscan (DiscoverX)
Procedure, shortened: as §1

[32] = target: T32, WEE2 (Homo sapiens, UniProt P0C1S8); conditions: WEE2, 1 uM
T32 construct: purchased Ambit KINOMEscan (DiscoverX)
Procedure, shortened: as §1

[33] = target: T33, YANK3 (Homo sapiens, UniProt Q86UX6); conditions: YANK3, 1 uM
T33 construct: purchased Ambit KINOMEscan (DiscoverX)
T33 sequence (Q86UX6 whole entry): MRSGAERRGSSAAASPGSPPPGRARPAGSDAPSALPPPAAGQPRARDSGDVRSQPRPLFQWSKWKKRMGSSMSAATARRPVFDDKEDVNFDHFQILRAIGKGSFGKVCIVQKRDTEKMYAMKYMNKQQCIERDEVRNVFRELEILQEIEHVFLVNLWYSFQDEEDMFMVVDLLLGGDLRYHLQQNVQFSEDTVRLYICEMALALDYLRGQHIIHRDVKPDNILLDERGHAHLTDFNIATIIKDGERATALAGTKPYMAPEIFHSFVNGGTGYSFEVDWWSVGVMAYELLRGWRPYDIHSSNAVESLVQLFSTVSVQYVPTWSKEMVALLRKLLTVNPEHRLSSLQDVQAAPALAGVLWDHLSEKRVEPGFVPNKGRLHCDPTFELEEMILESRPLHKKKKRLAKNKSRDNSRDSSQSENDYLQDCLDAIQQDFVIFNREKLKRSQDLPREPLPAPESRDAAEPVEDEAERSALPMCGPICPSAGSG
Procedure, shortened: as §1

[34] = target: T34, YSK4 (Homo sapiens, UniProt Q56UN5); conditions: YSK4, 1 uM
T34 construct: purchased Ambit KINOMEscan (DiscoverX)
Procedure, shortened: as §1

Compound | % binding compared to no inhibitor control [1] | % binding compared to no inhibitor control [2] | % binding compared to no inhibitor control [3] | % binding compared to no inhibitor control [4] | % binding compared to no inhibitor control [5] | % binding compared to no inhibitor control [6] | % binding compared to no inhibitor control [7] | % binding compared to no inhibitor control [8] | % binding compared to no inhibitor control [9] | % binding compared to no inhibitor control [10] | % binding compared to no inhibitor control [11] | % binding compared to no inhibitor control [12] | % binding compared to no inhibitor control [13] | % binding compared to no inhibitor control [14] | % binding compared to no inhibitor control [15] | % binding compared to no inhibitor control [16] | % binding compared to no inhibitor control [17] | % binding compared to no inhibitor control [18] | % binding compared to no inhibitor control [19] | % binding compared to no inhibitor control [20] | other results
COc1ccc(-c2cc3nccn3c(Nc3ncccc3C(N)=O)n2)cc1OC.Cl.Cl [BAY61-3606, 2-[7-(3,4-dimethoxyphenyl)-imidazo [1,2-c]pyrimidin-5-ylamino] nicotinamide dihydrochloride, reference compound] | 96% | 100% | 9.9% | 93% | 21% | 95% | 86% | 100% | 70% | 71% | 77% | 98% | 80% | 65% | 43% | 0.25% | 97% | 1.7% | 80% | 77% | % binding compared to no inhibitor control [21]: 60%; % binding compared to no inhibitor control [22]: 80%; % binding compared to no inhibitor control [23]: 76%; % binding compared to no inhibitor control [24]: 88%; % binding compared to no inhibitor control [25]: 94%; % binding compared to no inhibitor control [26]: 86%; % binding compared to no inhibitor control [27]: 96%; % binding compared to no inhibitor control [28]: 90%; % binding compared to no inhibitor control [29]: 80%; % binding compared to no inhibitor control [30]: 47%; % binding compared to no inhibitor control [31]: 69%; % binding compared to no inhibitor control [32]: 100%; % binding compared to no inhibitor control [33]: 53%; % binding compared to no inhibitor control [34]: 1.8%
COc1ccccc1Nc1nc(-c2ccc(OC)c(OC)c2)cc2nccn12 [BAY derivative 6] | 92% | 100% | 69% | 91% | 100% | 95% | 100% | 100% | 86% | 100% | 100% | 84% | 54% | 100% | 100% | 100% | 100% | 100% | 100% | 88% | % binding compared to no inhibitor control [21]: 100%; % binding compared to no inhibitor control [22]: 76%; % binding compared to no inhibitor control [23]: 95%; % binding compared to no inhibitor control [24]: 95%; % binding compared to no inhibitor control [25]: 100%; % binding compared to no inhibitor control [26]: 100%; % binding compared to no inhibitor control [27]: 82%; % binding compared to no inhibitor control [28]: 89%; % binding compared to no inhibitor control [29]: 100%; % binding compared to no inhibitor control [30]: 100%; % binding compared to no inhibitor control [31]: 86%; % binding compared to no inhibitor control [32]: 100%; % binding compared to no inhibitor control [33]: 100%; % binding compared to no inhibitor control [34]: 60%

Reference: publication PMC3399817 (PLoS ONE, 2012)
